Source: patent publication US12195482B1 (Arcus Biosciences, Inc., priority 2022, dated 2025)
pIC50: −log10 of the molar value.

Key:
recombinant human TYRO3 = target: T1, recombinant human TYRO3 (Homo sapiens, UniProt Q06418); test: Biochemical potency, HTRF KinEASE-TK kinase assay; conditions: 1 nM TYRO3, 700 μM ATP
T1 construct: purchased Invitrogen
T1 sequence (Q06418 41-890): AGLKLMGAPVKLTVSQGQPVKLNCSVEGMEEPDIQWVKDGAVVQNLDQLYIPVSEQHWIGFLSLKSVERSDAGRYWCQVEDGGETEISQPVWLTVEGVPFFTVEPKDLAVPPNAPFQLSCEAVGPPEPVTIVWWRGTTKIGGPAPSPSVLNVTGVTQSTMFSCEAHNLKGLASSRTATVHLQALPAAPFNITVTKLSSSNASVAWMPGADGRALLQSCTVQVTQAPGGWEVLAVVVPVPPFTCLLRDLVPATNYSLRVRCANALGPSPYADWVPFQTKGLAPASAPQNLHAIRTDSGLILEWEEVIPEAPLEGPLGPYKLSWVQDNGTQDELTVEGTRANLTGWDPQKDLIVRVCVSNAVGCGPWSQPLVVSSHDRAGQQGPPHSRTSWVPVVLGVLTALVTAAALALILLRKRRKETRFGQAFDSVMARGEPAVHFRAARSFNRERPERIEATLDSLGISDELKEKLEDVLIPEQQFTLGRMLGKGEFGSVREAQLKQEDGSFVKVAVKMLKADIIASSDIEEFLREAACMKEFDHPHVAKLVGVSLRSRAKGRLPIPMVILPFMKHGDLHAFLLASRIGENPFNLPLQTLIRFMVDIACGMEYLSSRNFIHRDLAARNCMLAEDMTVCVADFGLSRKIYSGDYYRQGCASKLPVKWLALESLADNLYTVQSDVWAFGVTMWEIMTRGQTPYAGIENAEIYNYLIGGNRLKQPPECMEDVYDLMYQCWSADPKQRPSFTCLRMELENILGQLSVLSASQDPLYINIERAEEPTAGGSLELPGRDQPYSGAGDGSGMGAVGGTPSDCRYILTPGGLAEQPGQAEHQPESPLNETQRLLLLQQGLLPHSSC
In short: (§1)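 HTRF 665/620 readout after a 2 h RT kinase reaction (final 700 μM ATP, 800 nM biotinylated TK substrate, 1% DMSO, HEPES pH 7.4 buffer) gave percent activity. Final enzyme was 5 nM for AXL, 1 nM for TYRO3 or MER, each preincubated 1 h with compound.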

recombinant human MER = target: T2, recombinant human MER (Homo sapiens, UniProt Q12866); test: Biochemical potency, HTRF KinEASE-TK kinase assay; conditions: 1 nM MER, 700 μM ATP
T2 construct: purchased Invitrogen
T2 sequence (Q12866 21-999): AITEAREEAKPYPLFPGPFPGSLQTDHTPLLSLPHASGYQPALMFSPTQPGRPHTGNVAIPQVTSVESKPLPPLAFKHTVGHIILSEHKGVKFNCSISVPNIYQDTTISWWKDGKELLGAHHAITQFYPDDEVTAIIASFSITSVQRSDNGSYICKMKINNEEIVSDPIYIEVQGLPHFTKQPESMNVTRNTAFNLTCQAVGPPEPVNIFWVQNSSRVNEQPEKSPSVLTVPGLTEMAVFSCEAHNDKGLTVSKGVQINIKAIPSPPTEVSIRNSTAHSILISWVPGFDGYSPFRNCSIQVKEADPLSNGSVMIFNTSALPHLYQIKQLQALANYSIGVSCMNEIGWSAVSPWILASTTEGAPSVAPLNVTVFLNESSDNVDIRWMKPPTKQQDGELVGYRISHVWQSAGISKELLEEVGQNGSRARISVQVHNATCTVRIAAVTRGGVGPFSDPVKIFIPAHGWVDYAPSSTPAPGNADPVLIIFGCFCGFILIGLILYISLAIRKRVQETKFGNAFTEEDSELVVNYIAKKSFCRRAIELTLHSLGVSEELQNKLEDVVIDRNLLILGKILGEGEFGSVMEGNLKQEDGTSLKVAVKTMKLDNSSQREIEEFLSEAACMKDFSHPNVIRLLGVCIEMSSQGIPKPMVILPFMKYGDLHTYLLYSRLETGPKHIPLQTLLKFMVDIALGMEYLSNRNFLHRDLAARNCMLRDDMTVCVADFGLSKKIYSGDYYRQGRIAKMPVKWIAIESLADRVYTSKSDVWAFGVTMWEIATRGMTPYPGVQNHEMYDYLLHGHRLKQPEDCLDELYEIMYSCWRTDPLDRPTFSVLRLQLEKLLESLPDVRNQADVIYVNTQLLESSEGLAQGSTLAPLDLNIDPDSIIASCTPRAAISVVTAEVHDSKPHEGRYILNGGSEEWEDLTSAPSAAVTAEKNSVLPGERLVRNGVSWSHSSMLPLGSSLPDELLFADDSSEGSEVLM
In short: as §1

Structure (SMILES)	pIC50 (recombinant human TYRO3)	pIC50 (recombinant human MER)
FC(F)c1cccnc1-c1ccc(-c2n[nH]c3ncc(-c4ccc5c(c4)CC[C@@H](N4C6COCC4C6)CC5)cc23)cc1 [Example 89, 6-[(7S)-3-[3-[4-[3-(Difluoromethyl)pyridin-2-yl]phenyl]-1H-pyrazolo[3,4-b]pyridin-5-yl]-6,7,8,9-tetrahydro-5H-benzo[7]annulen-7-yl]-3-oxa-6-azabicyclo[3.1.1]heptane]	6.00 to 7.00	6.00 to 7.00
c1ccc(-c2ccc(-c3c[nH]c4ncc(-c5ccc6c(c5)CC[C@@H](N5C[C@@H]7C[C@H]5CO7)CC6)cc34)cc2)nc1 [Example 33, (1S,4S)-5-[(7S)-3-[3-(4-Pyridin-2-ylphenyl)-1H-pyrrolo[2,3-b]pyridin-5-yl]-6,7,8,9-tetrahydro-5H-benzo[7]annulen-7-yl]-2-oxa-5-azabicyclo[2.2.1]heptane]	6.00 to 7.00	6.00 to 7.00
Cc1ccnnc1-c1ccc(-c2c[nH]c3ncc(-c4ccc5c(c4)CC[C@@H](N4C6COCC4C6)CC5)cc23)cc1 [Example 49, 6-[(7S)-2-{3-[4-(4-Methylpyridazin-3-yl)phenyl]-1H-pyrrolo[2,3-b]pyridin-5-yl}-6,7,8,9-tetrahydro-5H-benzo[7]annulen-7-yl]-3-oxa-6-azabicyclo[3.1.1]heptane]	> 7.00	> 7.00
Clc1cc(-c2c[nH]c3ncc(-c4ccc5c(c4)CC[C@@H](N4C6COCC4C6)CC5)cc23)ccc1-c1ccccn1 [Example 44, 6-[(7S)-2-{3-[3-Chloro-4-(pyridin-2-yl)phenyl]-1H-pyrrolo[2,3-b]pyridin-5-yl}-6,7,8,9-tetrahydro-5H-benzo[7]annulen-7-yl]-3-oxa-6-azabicyclo[3.1.1]heptane]	6.00 to 7.00	6.00 to 7.00
COc1cc(-c2c[nH]c3ncc(-c4ccc5c(c4)CC[C@@H](N4C6COCC4C6)CC5)cc23)ccc1-c1ccccn1 [Example 161, 6-[(7S)-2-{3-[3-Methoxy-4-(pyridin-2-yl)phenyl]-1H-pyrrolo[2,3-b]pyridin-5-yl}-6,7,8,9-tetrahydro-5H-benzo[7]annulen-7-yl]-3-oxa-6-azabicyclo[3.1.1]heptane]	6.00 to 7.00	6.00 to 7.00
COc1ccnc(-c2ccc(-c3n[nH]c4ncc(-c5ccc6c(c5)CC[C@@H](N5C7COCC5C7)CC6)cc34)cc2)c1C [Example 87, 6-[(7S)-3-[3-[4-(4-Methoxy-3-methylpyridin-2-yl)phenyl]-1H-pyrazolo[3,4-b]pyridin-5-yl]-6,7,8,9-tetrahydro-5H-benzo[7]annulen-7-yl]-3-oxa-6-azabicyclo[3.1.1]heptane]	6.00 to 7.00	6.00 to 7.00
C[C@@H]1CCCN1[C@@]1(C)CCc2ccc(-c3cnc4[nH]nc(-c5ccc(-c6nccs6)cc5)c4c3)cc2CC1 [Example 91, 2-(4-{5-[(7S)-7-Methyl-7-[(2R)-2-methylpyrrolidin-1-yl]-6,7,8,9-tetrahydro-5H-benzo[7]annulen-2-yl]-2H-pyrazolo[3,4-b]pyridin-3-yl}phenyl)-1,3-thiazole]	6.00 to 7.00	6.00 to 7.00
Cc1ccnnc1-c1ccc(-c2c[nH]c3ncc(-c4ccc5c(c4)CC[C@@](C)(N4CCC[C@H]4C)CC5)cc23)cc1 [Example 51, 4-methyl-3-(4-{5-[(7S)-7-Methyl-7-[(2R)-2-methylpyrrolidin-1-yl]-6,7,8,9-tetrahydro-5H-benzo[7]annulen-2-yl]-1H-pyrrolo[2,3-b]pyridin-3-yl}phenyl)pyridazine]	> 7.00	> 7.00
COCCOc1cccnc1-c1ccc(-c2c[nH]c3ncc(-c4ccc5c(c4)CC[C@@H](N4C6COCC4C6)CC5)cc23)cc1 [Example 3, 6-[(7S)-2-(3-{4-[3-(2-Methoxyethoxy)pyridin-2-yl]phenyl}-1H-pyrrolo[2,3-b]pyridin-5-yl)-6,7,8,9-tetrahydro-5H-benzo[7]annulen-7-yl]-3-oxa-6-azabicyclo[3.1.1]heptane]	> 7.00	> 7.00
N#Cc1cccnc1-c1ccc(-c2c[nH]c3ncc(-c4ccc5c(c4)CC[C@@H](N4C6COCC4C6)CC5)cc23)cc1 [Example 46, 2-(4-{5-[(7S)-7-{3-Oxa-6-azabicyclo[3.1.1]heptan-6-yl}-6,7,8,9-tetrahydro-5H-benzo[7]annulen-2-yl]-1H-pyrrolo[2,3-b]pyridin-3-yl}phenyl)pyridine-3-carbonitrile]	6.00 to 7.00	6.00 to 7.00
CS(=O)(=O)c1ccccc1-c1ccc(-c2c[nH]c3ncc(-c4ccc5c(c4)CC[C@@H](N4C6COCC4C6)CC5)cc23)cc1 [Example 93, 6-[(7S)-2-(3-{2′-Methanesulfonyl-[1,1′-biphenyl]-4-yl}-1H-pyrrolo[2,3-b]pyridin-5-yl)-6,7,8,9-tetrahydro-5H-benzo[7]annulen-7-yl]-3-oxa-6-azabicyclo[3.1.1]heptane]	6.00 to 7.00	6.00 to 7.00
COc1cc(-c2n[nH]c3ncc(-c4ccc5c(c4)CC[C@@H](N4C6COCC4C6)CC5)cc23)ccc1-c1ccccn1 [Example 160, 6-[(7S)-2-{3-[3-Methoxy-4-(pyridin-2-yl)phenyl]-2H-pyrazolo[3,4-b]pyridin-5-yl}-6,7,8,9-tetrahydro-5H-benzo[7]annulen-7-yl]-3-oxa-6-azabicyclo[3.1.1]heptane]	6.00 to 7.00	6.00 to 7.00
c1cc(-c2ccc(-c3c[nH]c4ncc(-c5ccc6c(c5)CC[C@@H](N5C7COCC5C7)CC6)cc34)cc2)ccn1 [Example 41, 6-[(7S)-2-{3-[4-(Pyridin-4-yl)phenyl]-1H-pyrrolo[2,3-b]pyridin-5-yl}-6,7,8,9-tetrahydro-5H-benzo[7]annulen-7-yl]-3-oxa-6-azabicyclo[3.1.1]heptane]	< 6.00	6.00 to 7.00
Cc1nccnc1-c1ccc(-c2c[nH]c3ncc(-c4ccc5c(c4)CC[C@@H](N4C6COCC4C6)CC5)cc23)cc1 [Example 48, 6-[(7S)-2-{3-[4-(3-Methylpyrazin-2-yl)phenyl]-1H-pyrrolo[2,3-b]pyridin-5-yl}-6,7,8,9-tetrahydro-5H-benzo[7]annulen-7-yl]-3-oxa-6-azabicyclo[3.1.1]heptane]	6.00 to 7.00	6.00 to 7.00
Cc1cnc(C)c(-c2ccc(-c3c[nH]c4ncc(-c5ccc6c(c5)CC[C@@H](N5C7COCC5C7)CC6)cc34)cc2)n1 [Example 53, 6-[(7S)-2-{3-[4-(3,6-Dimethylpyrazin-2-yl)phenyl]-1H-pyrrolo[2,3-b]pyridin-5-yl}-6,7,8,9-tetrahydro-5H-benzo[7]annulen-7-yl]-3-oxa-6-azabicyclo[3.1.1]heptane]	6.00 to 7.00	6.00 to 7.00
CC(C)(C#N)c1cccnc1-c1ccc(-c2n[nH]c3ncc(-c4ccc5c(c4)CC[C@@H](N4C6COCC4C6)CC5)cc23)cc1 [Example 85, 2-Methyl-2-[2-[4-[5-[(7S)-7-(3-oxa-6-azabicyclo[3.1.1]heptan-6-yl)-6,7,8,9-tetrahydro-5H-benzo[7]annulen-3-yl]-1H-pyrazolo[3,4-b]pyridine-3-yl]phenyl]pyridine-3-yl]propanenitrile]	6.00 to 7.00	6.00 to 7.00
